Reference: PMC3556010, “A new strategy based on pharmacophore-based virtual screening in adenosine deaminase inhibitors detection and in-vitro study” (DARU Journal of Pharmaceutical Sciences, 2012)

Assays:
[1] = biological target: T1, Adenosine deaminase (Bos taurus, UniProt P56658); assay: Fluorescence spectroscopy of ADA 3-D structure changes; design: species or system bovine; details: excitation 290 nm, pH 7.5, 37°C; inhibitor 10 μM
T1 construct: Adenosine deaminase (from bovine spleen in 3.2 M ammonium sulfate) was purchased from Sigma; purchased Sigma (St. Louis, MO, USA); host or cells: bovine spleen (tissue-derived)
T1 sequence (P56658 1-363): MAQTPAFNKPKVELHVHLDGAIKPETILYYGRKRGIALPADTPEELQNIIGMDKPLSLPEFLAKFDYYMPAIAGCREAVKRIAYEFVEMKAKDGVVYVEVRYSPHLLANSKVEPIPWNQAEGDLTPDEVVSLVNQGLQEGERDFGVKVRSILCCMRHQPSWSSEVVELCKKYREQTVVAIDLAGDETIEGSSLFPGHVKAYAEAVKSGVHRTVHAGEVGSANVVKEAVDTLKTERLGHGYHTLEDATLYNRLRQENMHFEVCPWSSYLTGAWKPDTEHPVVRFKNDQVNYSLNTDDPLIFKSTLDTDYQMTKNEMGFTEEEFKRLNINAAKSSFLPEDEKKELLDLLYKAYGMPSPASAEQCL
Experimental: Fluorescence study has been done with fluorescent spectroscopy (Hitachi MPF-4, Japan), which its cell length is 1cm. In this method, the exciting wavelength was adjusted in 290 nm and the emission was studied in range of 300–400 nm for possible enzyme 3-D structure changes. In this experiment, different concentrations of inhibitors (5–100 μM) were investigated in the presence of ADA (0.01unit) by final volume of 400 μL with phosphate buffer.
To investigate changes in enzyme 3-D structure at different concentration of inhibitors (10–100 μM), the fluorescence experiments were done in excitation wavelength of 290 nm, which is due to tryptophan amino acids in the active site of enzyme Figure 5.
Figure 5 The fluorescence spectra of adenosine deaminase at pH=7.5 and T=37°C in the presence of different concentrations of three inhibitors: 10–100 μM.

[2] = biological target: T2, Adenosine deaminase (from bovine spleen) (Bos taurus, UniProt P56658); assay: ADA enzyme inhibition by UV-vis spectrophotometry (Kaplan method, absorbance at 265 nm); type: biochemical; details: for IC50: pH 7.5, 37°C, phosphate buffer; for Ki: secondary plot of apparent Km versus [I], inhibitor 0–130 μM, substrate 20–124 μM, 37°C, pH 7.5, read-out: Ki (inhibition constant)
T2 construct: Adenosine deaminase (from bovine spleen in 3.2 M ammonium sulfate) was purchased from Sigma; purchased Sigma (St. Louis, MO, USA); host or cells: bovine spleen (tissue-derived)
T2 sequence (P56658 1-363): T1 sequence (P56658 1-363)
Experimental: Adenosine deaminase (from bovine spleen in 3.2 M ammonium sulfate) was purchased from Sigma (St. Louis, MO, USA). Phosphate buffer 50 mM, pH 7.5, was used as media which is comprised NaH2PO4 and Na2HPO4 and are from Merck. In addition, other material such as solvents, were purchased from this company.
All of biological samples were prepared with double distilled water. The adenosine stock solution prepared and was used in concentration range of 0.01-0.4 mM. The concentration of enzyme in the assay mixture 50 mM sodium phosphate buffer, was 0.9 nM with a final volume of 1ml. Enzymatic activities were assayed by UV–vis spectrophotometry (Shimadzu-3100, Japan) based on Kaplan Method to follow the decrease in absorbance at 265 nm resulting from the conversion of adenosine to inosine.
For accurate determination of kinetic parameters, the IC50 values were evaluated, and then the enzyme inhibition was studied in 180 s intervals. […] In a competitive inhibition; Vmax is unaltered, whereas Km is increased. The slope of a competitive plot is equal to:
Slope=KmI/Vmax.Ki+Km/Vmax
All experiments performed in 37°C and phosphate buffer, pH=7.5.

[3] = biological target: adenosine deaminase; details: cited from earlier work

Row | enzyme structural changes by fluorescence intensity [1] | inhibition mechanism ([2]; kinetic studies) | IC50 [2] | Ki [2] | Compound | Ki [3]
1 | sever structural changes | competitive | 41 µM | 20 µM | Cn1c([N+](=O)[O-])cnc1C#N [Compound 2] | 
2 |  |  |  |  | erythro-9-(2-hydroxy-3-nonyl) adenine [EHNA] | 0.037 µM
3 |  |  | 103 µM | 63 µM | Cn1c([N+](=O)[O-])cnc1-c1nnco1 [Compound 1] | 
